Reference: ChEMBL document CHEMBL3745637, “New hybrid molecules with anticonvulsant and antinociceptive activity derived from 3-methyl- or 3,3-dimethyl-1-[1-oxo-1-(4-phenylpiperazin-1-yl)propan-2-yl]pyrrolidine-2,5-diones” (Bioorg Med Chem, 2016)
Calls of active or inactive are those of the source. The rule behind the calls is not given here.

Columns and labels:
[1] = tested on: Mus musculus; experiment: Anticonvulsant activity in ip dosed Swiss mouse assessed as reduction in clonic seizures at 0.5 hrs by subcutaneous pentylenetetrazole seizure test; type: functional
[2] = Protective index, ratio of TD50 for neurotoxicity in ip dosed Swiss mouse to ED50 for anticonvulsant activity in ip dosed MES Swiss mouse model at 0.5 hrs; type: toxicity, organism-based; conditions: in vivo, read-out: Ratio TD50/ED50
[3] = tested on: Mus musculus; experiment: Anticonvulsant activity in ip dosed Swiss mouse assessed as protection against maximal electroshock-induced seizures at 0.5 hrs; type: functional
[4] = tested on: Mus musculus; experiment: Anticonvulsant activity against ip dosed Swiss mouse seizure model assessed as protection at 0.5 hrs by 6 Hz psychomotor seizure test; type: functional
[5] = Protective index, ratio of TD50 for neurotoxicity in ip dosed Swiss mouse to ED50 for anticonvulsant activity in ip dosed Swiss mouse 6 Hz psychomotor seizure model at 0.5 hrs; type: toxicity, organism-based; conditions: in vivo, read-out: Ratio TD50/ED50
[6] = Protective index, ratio of TD50 for neurotoxicity in ip dosed Swiss mouse to ED50 for anticonvulsant activity in ip dosed scPTZ Swiss mouse model at 0.25 hrs; type: toxicity, organism-based; conditions: in vivo, read-out: Ratio TD50/ED50
[7] = tested on: Mus musculus; experiment: Anticonvulsant activity in ip dosed Swiss mouse assessed as reduction in clonic seizures at 0.25 hrs by subcutaneous pentylenetetrazole seizure test; type: functional
[8] = tested on: Mus musculus; experiment: Anticonvulsant activity against ip dosed Swiss mouse seizure model assessed as protection at 0.25 hrs by 6 Hz psychomotor seizure test; type: functional
[9] = tested on: Mus musculus; experiment: Anticonvulsant activity in Swiss mouse assessed as reduction in clonic seizures at 100 mg/kg, ip pretreated for 2 hrs measured after 30 mins by subcutaneous pentylenetetrazole seizure test; type: functional, organism-based
[10] = Protective index, ratio of TD50 for neurotoxicity in ip dosed Swiss mouse to ED50 for anticonvulsant activity in ip dosed MES Swiss mouse model at 0.25 hrs; type: toxicity, organism-based; conditions: in vivo, read-out: Ratio TD50/ED50
[11] = tested on: Mus musculus; experiment: Anticonvulsant activity in ip dosed Swiss mouse assessed as prolong latency to first seizure episode pretreated for 0.25 hrs measured after 30 mins by subcutaneous pentylenetetrazole seizure test; type: functional, organism-based
[12] = tested on: Mus musculus; experiment: Anticonvulsant activity in Swiss mouse assessed as protection against maximal electroshock-induced seizures at 100 mg/kg, ip pretreated for 2 hrs; type: functional, organism-based
[13] = tested on: Mus musculus; experiment: Antinociceptive activity in ip dosed Swiss mouse assessed as reduction of formalin-induced licking at MES ED50 pretreated for 0.25 hrs measured during 1 to 5 mins; type: functional; set-up: scale not given: the % may be the effect or the level left
[14] = Neurotoxicity in ip dosed Swiss mouse seizure model assessed as motor impairment pretreated for 0.5 hrs measured within 60 s by chimney test; type: toxicity, organism-based; conditions: in vivo
[15] = tested on: Mus musculus; experiment: Anticonvulsant activity in Swiss mouse assessed as reduction in clonic seizures at 100 mg/kg, ip pretreated for 1 hr measured after 30 mins by subcutaneous pentylenetetrazole seizure test; type: functional, organism-based
[16] = tested on: Mus musculus; experiment: Anticonvulsant activity in Swiss mouse assessed as protection against maximal electroshock-induced seizures at 100 mg/kg, ip pretreated for 0.25 hrs; type: functional, organism-based
[17] = Protective index, ratio of TD50 for neurotoxicity in ip dosed Swiss mouse to ED50 for anticonvulsant activity in ip dosed Swiss mouse 6 Hz psychomotor seizure model at 0.25 hrs; type: toxicity, organism-based; conditions: in vivo, read-out: Ratio TD50/ED50
[18] = Neurotoxicity in ip dosed Swiss mouse seizure model assessed as motor impairment pretreated for 0.25 hrs measured within 60 s by chimney test; type: toxicity, organism-based; conditions: in vivo
[19] = tested on: Mus musculus; experiment: Anticonvulsant activity in Swiss mouse assessed as protection against maximal electroshock-induced seizures at 300 mg/kg, ip pretreated for 0.5 hrs; type: functional, organism-based
[20] = tested on: Mus musculus; experiment: Anticonvulsant activity against Swiss mouse seizure model assessed as protection at 100 mg/kg, ip pretreated for 0.25 hrs by 6 Hz psychomotor seizure test; type: functional, organism-based
[21] = tested on: Mus musculus; experiment: Antinociceptive activity in ip dosed Swiss mouse assessed as reduction of formalin-induced licking at MES ED50 pretreated for 0.25 hrs measured during 15 to 20 mins; type: functional; set-up: scale not given: the % may be the effect or the level left
[22] = tested on: Mus musculus; experiment: Anticonvulsant activity in Swiss mouse assessed as protection against maximal electroshock-induced seizures at 300 mg/kg, ip pretreated for 0.25 hrs; type: functional, organism-based
[23] = Protective index, ratio of TD50 for neurotoxicity in ip dosed Swiss mouse to ED50 for anticonvulsant activity in ip dosed scPTZ Swiss mouse model at 0.5 hrs; type: toxicity, organism-based; conditions: in vivo, read-out: Ratio TD50/ED50
[24] = tested on: Mus musculus; experiment: Anticonvulsant activity against Swiss mouse seizure model assessed as protection at 100 mg/kg, ip pretreated for 0.5 hrs by 6 Hz psychomotor seizure test; type: functional, organism-based
[25] = tested on: Mus musculus; experiment: Anticonvulsant activity in ip dosed Swiss mouse assessed as protection against maximal electroshock-induced seizures at 0.25 hrs; type: functional
[26] = tested on: Mus musculus; experiment: Antinociceptive activity in ip dosed Swiss mouse assessed as reduction of formalin-induced licking at MES ED50 pretreated for 0.25 hrs measured during 20 to 25 mins; type: functional; set-up: scale not given: the % may be the effect or the level left
[27] = tested on: Mus musculus; experiment: Toxicity in Swiss mouse assessed as death at 300 mg/kg, ip measured after 0.25 hrs; type: organism-based; conditions: in vivo
[28] = tested on: Mus musculus; experiment: Anticonvulsant activity in Swiss mouse assessed as reduction in clonic seizures at 100 mg/kg, ip pretreated for 0.5 hrs measured after 30 mins by subcutaneous pentylenetetrazole seizure test; type: functional, organism-based
[29] = tested on: Mus musculus; experiment: Anticonvulsant activity in Swiss mouse assessed as protection against maximal electroshock-induced seizures at 100 mg/kg, ip pretreated for 1 hr; type: functional, organism-based
[30] = tested on: Mus musculus; experiment: Anticonvulsant activity in Swiss mouse assessed as protection against maximal electroshock-induced seizures at 300 mg/kg, ip pretreated for 2 hrs; type: functional, organism-based
[31] = tested on: Mus musculus; experiment: Anticonvulsant activity in Swiss mouse assessed as protection against maximal electroshock-induced seizures at 300 mg/kg, ip pretreated for 1 hr; type: functional, organism-based
[32] = tested on: Mus musculus; experiment: Antinociceptive activity in ip dosed Swiss mouse assessed as reduction of formalin-induced licking at MES ED50 pretreated for 0.25 hrs measured during 25 to 30 mins; type: functional; set-up: scale not given: the % may be the effect or the level left
[33] = tested on: Mus musculus; experiment: Antinociceptive activity in ip dosed Swiss mouse assessed as reduction of formalin-induced licking at MES ED50 pretreated for 0.25 hrs measured during 15 to 30 mins; type: functional, organism-based
[34] = tested on: Mus musculus; experiment: Anticonvulsant activity in Swiss mouse assessed as reduction in clonic seizures at 100 mg/kg, ip pretreated for 0.25 hrs measured after 30 mins by subcutaneous pentylenetetrazole seizure test; type: functional, organism-based
[35] = organism: Rattus norvegicus; experiment: Displacement of [3H]Batrachotoxinin from sodium channel site 2 in rat cerebral cortex at 100 uM after 60 mins by scintillation counting method; type: tissue-based
[36] = organism: Rattus norvegicus; experiment: Displacement of [3H]Batrachotoxinin from sodium channel site 2 in rat cerebral cortex at 500 uM after 60 mins by scintillation counting method; type: tissue-based
[37] = tested on: Mus musculus; experiment: Anticonvulsant activity against Swiss mouse seizure model assessed as protection at 100 mg/kg, ip pretreated for 2 hrs by 6 Hz psychomotor seizure test; type: functional, organism-based

Compound | ED50 [1] [mg/kg] | selectivity ratio at 0.5 h [2] | ED50 [3] [mg/kg] | ED50 [4] [mg/kg] | selectivity ratio at 0.5 h [5] | ED50 [7] [mg/kg] | ED50 [8] [mg/kg] | Activity [9] | selectivity ratio at 0.25 h [10] | Activity [12] | Activity [13] | selectivity ratio at 0.25 h [17] | TD50 at 0.25 h [18] [mg/kg] | Activity [19] | Activity [20] | Activity [21] [%] | Activity [22] | ED50 [25] [mg/kg] | Activity [26] [%] | Activity [30] | also measured
COC[C@@H](NC(C)=O)C(=O)NCc1ccccc1 [LACOSAMIDE] | > 500 | 3.6 | 9.4 | 6.4 | 5.26 | – | – | – | – | – | – | – | – | – | – | – | – | – | – | – | –
CC1CC(=O)N(C(C)C(=O)N2CCN(c3cccc(Cl)c3)CC2)C1=O (configuration not stated) | 121 | 2.74 | 98.5 | 24.4 | 11.1 | 114 | 13.6 | inactive | 2.91 | inactive | 45% | 19.2 | 261 | Active | Active | 74 | Active | 89.7 | 88 | – | selectivity ratio at 0.25 h [6]: 2.3; Activity [11]: Dose-dependent effect; TD50 at 0.5 h [14]: 270 mg/kg; Activity [15]: inactive; Activity [16]: Active; selectivity ratio at 0.5 h [23]: 2.23; Activity [24]: Active
CC1CC(=O)N(C(C)C(=O)N2CCN(c3ccc(C(F)(F)F)cc3)CC2)C1=O (configuration not stated) | – | – | – | – | – | – | – | – | – | – | – | – | – | – | – | – | inactive | – | – | – | Activity [27]: Toxic
CCC(C(=O)N1CCN(c2cccc(C(F)(F)F)c2)CC1)N1C(=O)CC(C)C1=O (configuration not stated) | > 130 | 2.24 | 75.7 | 41.2 | 4.12 | 108 | 30.3 | inactive | 2.19 | – | inactive | 5.42 | 164 | – | Active | 94 | Active | 75.1 | 57 | – | selectivity ratio at 0.25 h [6]: 1.51; Activity [11]: Dose-dependent effect; TD50 at 0.5 h [14]: 170 mg/kg; Activity [15]: inactive; Activity [28]: inactive; Activity [24]: Active
Cc1cccc(N2CCN(C(=O)C(C)N3C(=O)CC(C)C3=O)CC2)c1 (configuration not stated) | – | – | – | – | – | – | – | – | 1.73 | inactive | – | – | 210 | Active | – | – | Active | 122 | – | inactive | Activity [29]: inactive
CC(C(=O)N1CCN(c2cccc(C(F)(F)F)c2)CC1)N1C(=O)CC(C)(C)C1=O (configuration not stated) | – | – | – | – | – | – | 29 | inactive | 3.73 | inactive | 56% | 14.7 | 425 | Active | – | 96 | Active | 114 | 93 | Active | Activity [31]: Active; Activity [16]: Active; Activity [32]: 98%; Activity [33]: Active; Activity [34]: inactive
NC(=O)N1c2ccccc2C=Cc2ccccc21 | – | – | – | – | – | – | – | – | – | – | – | – | – | – | – | – | – | – | – | – | inhibition [35]: 17.4%; inhibition [36]: 33.6%
CCC(C(=O)N1CCN(c2cccc(Cl)c2)CC1)N1C(=O)CC(C)C1=O (configuration not stated) | – | – | – | – | – | > 130 | 43.5 | – | 1.91 | inactive | inactive | 5.13 | 223 | – | Active | 93 | – | 117 | – | inactive | Activity [29]: inactive; Activity [37]: inactive
